From patent US12319652B2, “Salts and solid forms of (R)-1-(5-methoxy-1H-indol-1-yl)-N,N-dimethylpropan-2-amine” (priority 2021, dated 2025)
Where two headings read alike, the source gives them in different places.

Columns and labels:
[1] = Equilibrium humidity evaluation of crystalline compound 1 HCl Form A (95% RH/20° C.); type: physicochemical; settings: for XRPD (t = 0) / XRPD (t = 5 d) / XRPD (t = 10 d): 95% RH @ 20° C.; for DSC onset / XRPD: t = 10 days, 95 % RH @ 20° C.
Experimental: The stability of crystalline compound 1 HCl Form A was evaluated. Absorbent compound 1·Cl (Form A), (100 mg) was maintained, open-capped at 95% RH/20° C. and monitored at t=0, t=5 d and t=10 d, time points.
While absorbent Compound 1 HCl Form A), (100 mg) was placed open-capped inside double, cable-tied, electrostatic polythene bags (to mimic a typical packaging configuration) and placed inside the same humidity chamber at 95% RH at 20° C. and monitored at t=0, t=5 d and t=10 d time points. Stability of compound 1·HCl (Form A) at 40° C./75% RH was examined as part of the salt screen, and was stable over 10 d.

[2] = Heat-up/cool-down crystallization screen of Compound 1 HCl
Experimental: A heat up/cool down crystallization screen was performed. An compound 1 HCl Form A was used as input material. […]

[3] = Amorphous forms and thermal study (glass temperature Tg by DSC/TGA); type: physicochemical; settings: for DSC measurements, Endset / DSC measurements, Integral / DSC measurements, Onset / DSC measurements, Peak: DSC thermal event Tg; for Form Assignment: heated up past the melt event on a hot stage microscope
[4] = type: physicochemical
Experimental: Both samples were maintained at 75% RH at 40° C. and monitored by HPLC at time points t=1 h, 3 h, 24 h, 48 h, 7 d, 2 w, 3 w, 4 w and 5 w.
Under the conditions evaluated during this study, XRPD analysis could not be performed as compound 1 Fumarate turned to an oily residue within 3 h under both conditions.
[…] Both samples were maintained under equilibrium humidity of 75% RH at 40° C. and monitored, initially at hourly and then weekly time points.

[5] = Double polyethylene bagged, open vial
[6] = 2-Propanol 3.0 vol + Water 75 μl
[7] = Chlorobenzene 3.0 vol + MeOH 175 μl
[8] = Ethyl formate 3.0 vol + MeOH 225 μl
[9] = Isopropyl acetate 3.0 vol + IPA 3725 μl
[10] = Nitromethane 3.0 vol + MeOH 50 μl

COc1ccc2c(ccn2C[C@@H](C)N(C)C)c1.Cl [compound 1 HCl Form A]
XRPD (t = 0) [1, 5]: Form A | XRPD (t = 5 d) [1, 5]: Form A | XRPD (t = 10 d) [1, 5]: Form A | DSC onset [1, 5]: 203.7 °C | XRPD [1, 5]: Form A | XRPD (t = 0) ([1]; Open vial): Form A | XRPD (t = 5 d) ([1]; Open vial): Form A | XRPD (t = 10 d) ([1]; Open vial): Form A | DSC onset ([1]; Open vial): 204.4 °C | XRPD ([1]; Open vial): Form A | Observations (t = -, T = 70° C.) [2, 6]: Pink solution | XRPD (moist pellet) [2, 6]: Form A | XRPD (oven dried) [2, 6]: Form A | Observations (t = -, T = 70° C.) ([2]; Acetone 3.0 vol + Water 50 μl): Pink solution | XRPD (moist pellet) ([2]; Acetone 3.0 vol + Water 50 μl): Form A | XRPD (oven dried) ([2]; Acetone 3.0 vol + Water 50 μl): Form A | Observations (t = -, T = 70° C.) [2, 7]: Pink solution | XRPD (moist pellet) [2, 7]: Form A | XRPD (oven dried) [2, 7]: Form A | Observations (t = -, T = 70° C.) ([2]; DCM 3.0 vol + MeOH 125 μl): Pink solution | XRPD (moist pellet) ([2]; DCM 3.0 vol + MeOH 125 μl): Form A | XRPD (oven dried) ([2]; DCM 3.0 vol + MeOH 125 μl): Form A | Observations (t = -, T = 70° C.) ([2]; EtOAc 3.0 vol + EtOH 1375 μl): Pink solution | XRPD (moist pellet) ([2]; EtOAc 3.0 vol + EtOH 1375 μl): Form A | XRPD (oven dried) ([2]; EtOAc 3.0 vol + EtOH 1375 μl): Form A | Observations (t = -, T = 70° C.) ([2]; EtOH 3.0 vol + Water 50 μl): Pink solution | XRPD (moist pellet) ([2]; EtOH 3.0 vol + Water 50 μl): Form A | XRPD (oven dried) ([2]; EtOH 3.0 vol + Water 50 μl): Form A | Observations (t = -, T = 70° C.) [2, 8]: Pink solution | XRPD (moist pellet) [2, 8]: Form A | XRPD (oven dried) [2, 8]: Form A | Observations (t = -, T = 70° C.) [2, 9]: Suspension | XRPD (moist pellet) [2, 9]: Form A | XRPD (oven dried) [2, 9]: Form A | Observations (t = -, T = 70° C.) ([2]; MEK 3.0 vol + Water 50 μl): Pink solution | XRPD (moist pellet) ([2]; MEK 3.0 vol + Water 50 μl): Form A | XRPD (oven dried) ([2]; MEK 3.0 vol + Water 50 μl): Form A | Observations (t = -, T = 70° C.) ([2]; MeCN 3.0 vol + Water 25 μl): Pink solution | XRPD (oven dried) ([2]; MeCN 3.0 vol + Water 25 μl): Form A | Observations (t = -, T = 70° C.) ([2]; MeOH 3.0 vol + water 25 μl): Pink solution | XRPD (moist pellet) ([2]; MeOH 3.0 vol + water 25 μl): Form A | XRPD (oven dried) ([2]; MeOH 3.0 vol + water 25 μl): Form A | Observations (t = -, T = 70° C.) ([2]; MeTHF 3.0 vol + MeOH 425 μl): Pink solution | XRPD (moist pellet) ([2]; MeTHF 3.0 vol + MeOH 425 μl): Form A | XRPD (oven dried) ([2]; MeTHF 3.0 vol + MeOH 425 μl): Form A | Observations (t = -, T = 70° C.) ([2]; Methyl acetate 3.0 vol + Water 75 μl): Pink solution | Observations (t = -, T = 70° C.) [2, 10]: Pink solution | XRPD (moist pellet) [2, 10]: Form A | XRPD (oven dried) [2, 10]: Form A | Observations (t = -, T = 70° C.) ([2]; TBME 3.0 vol + MeOH 425 μl): Pink solution | XRPD (moist pellet) ([2]; TBME 3.0 vol + MeOH 425 μl): Form A | XRPD (oven dried) ([2]; TBME 3.0 vol + MeOH 425 μl): Form A | Observations (t = -, T = 70° C.) ([2]; THE 3.0 vol + Water 50 μl): Pink solution | XRPD (moist pellet) ([2]; THE 3.0 vol + Water 50 μl): Form A | XRPD (oven dried) ([2]; THE 3.0 vol + Water 50 μl): Form A | Observations (t = -, T = 70° C.) ([2]; Toluene 3.0 vol + MeOH 200 μl): Pink solution | XRPD (moist pellet) ([2]; Toluene 3.0 vol + MeOH 200 μl): Form A | XRPD (oven dried) ([2]; Toluene 3.0 vol + MeOH 200 μl): Form A | Observations (t = -, T = 70° C.) ([2]; Water 3.0 vol, no co-solvent): Pink solution

COc1ccc2c(ccn2C[C@@H](C)N(C)C)c1.Cl [amorphous compound 1 HCl]
TGA % Δwt. ([3]; 206.7° C., comment: De-solvation): −18.2%, | DSC measurements, Endset [3]: 48.35 °C | DSC measurements, Integral [3]: −2.2 Jg^−1 | DSC measurements, Onset [3]: 37.07 °C | DSC measurements, Peak [3]: 43.00 °C | Form Assignment [3]: Amorphous

COc1ccc2c(ccn2C[C@@H](C)N(C)C)c1.O=C(O)/C=C/C(=O)O [amorphous compound 1 fumarate]
HPLC (% area) ([4]; input batch 1 before storage at 75% RH/40° C.): 93.84 % area | HPLC (% area) ([4]; open-necked wide vial, 75% RH/40° C., t = 2 w): 91.24 % area | HPLC (% area) ([4]; open-necked wide vial, 75% RH/40° C., t = 3 w): 94.17 % area | HPLC (% area) ([4]; open-necked wide vial, 75% RH/40° C., t = 4 w): 91.86 % area | HPLC (% area) ([4]; open-necked wide vial, 75% RH/40° C., t = 5 w): 91.57 % area | HPLC (% area) ([4]; sealed PK0056 electrostatic bags, 75% RH/40° C., t = 2 w): 91.21 % area | HPLC (% area) ([4]; sealed PK0056 electrostatic bags, 75% RH/40° C., t = 3 w): 91.94 % area | HPLC (% area) ([4]; sealed PK0056 electrostatic bags, 75% RH/40° C., t = 4 w): 90.9 % area | HPLC (% area) ([4]; sealed PK0056 electrostatic bags, 75% RH/40° C., t = 5 w): 91.3 % area | DSC measurements, Endset [3]: 34.30 °C | DSC measurements, Integral [3]: −1.73 Jg^−1 | DSC measurements, Onset [3]: 21.14 °C | DSC measurements, Peak [3]: 29.67 °C | Form Assignment [3]: Amorphous
